How the values were obtained:
[1] = molecular target: target tagged with nanoLuciferase in 293-NB2 cells (Homo sapiens, UniProt P24941); experiment: nanoBRET TE Intracellular Kinase Assay (Cell nanoBRET Assay); assay type: cell-based
Method: Compounds described herein were also tested in a nanoBRET TE Intracellular Kinase Assay. Test compounds were prepared in a DMSO stock solution. 45 uL of stock solution was transferred to a 384 well plate (Greiner, 781201), and a 3-fold 11-point dilution was performed. 293-NB2 cells expressing target tagged with nanoLuciferase were diluted in cell growth media (DMEM+10% FBS+1% Pen/Strep media) and a 40 uL cell solution of 7.5E4 cells/mL was seeded in a separate 384 well cell culture plate and incubated overnight at 37° C./5% CO2/100% humidity. […] 80 nL of each concentration of compound was transferred from the compound plate to a corresponding well in the cell culture plate by Echo550 liquid handler. The plates were incubated for 2 hrs at 37° C./5% CO2/100% humidity. […] Chemiluminescence was then read on an EnVision reader (PerkinElmer).

[2] = molecular target: T1, CDK2/Cyclin E complex (Homo sapiens, UniProt P24941); experiment: CDK2/Cyclin E fluorescence-based microfluidic mobility shift assay (CDK2 Biochemical Caliper Assay); conditions: read-out: Biochemical CDK2/CyclinE Caliper IC50
T1 construct: purchased Eurofins 14-475
Summary of the method: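 Wild-type CDK2/Cyclin E was preincubated with compound and ATP for 30 min at RT before the 5-FAM-QSPKKG peptide was added. Final concentrations were 0.1 nM enzyme, 2000 uM ATP, 1.5 uM peptide and 1% DMSO. After 20 hr at RT and EDTA stop, substrate conversion was read by microfluidic mobility shift over an 11-point, 3-fold dilution series.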

Structure (SMILES) | IC50 [1] [µM] | IC50 [2] [µM]
Cc1cc(CC(=O)Nc2ncn([C@@H]3CC[C@H](OC(=O)NC4(C)CC4)C3)n2)on1 (single isomer, unassigned) [Example 40] | 1 to 100 | 1 to 100
C=C(C)c1ccncc1O[C@@H]1CC[C@H](c2cc(NC(=O)Cc3cc(C)no3)n[nH]2)C1 (single isomer, unassigned) [Example 57] | ≤ 0.1 | ≤ 0.1
C=C(C)c1ccncc1O[C@H]1CC[C@@H](c2cc(NC(=O)Cc3cc(C)no3)n[nH]2)C1 (single isomer, unassigned) [Example 58] | ≤ 0.1 | ≤ 0.1
Cc1cc(CC(=O)Nc2cc([C@H]3CC[C@@H](NC(=O)NC(C)C)C3)[nH]n2)on1 (single isomer, unassigned) [Example 83] | 1 to 100 | 1 to 100
Cc1cc(CC(=O)Nc2cc([C@H]3CC[C@@H](N4CC(C)(C)NC4=O)C3)[nH]n2)on1 (single isomer, unassigned) [Example 91] | 1 to 100 | ≤ 0.1
Cc1cc(CC(=O)Nc2cc([C@@H]3CC[C@H](NC(=O)NC(C)C)C3)[nH]n2)on1 (single isomer, unassigned) [Example 102] | 1 to 100 | 1 to 100
Cc1cc(CC(=O)Nc2cc([C@H]3CC[C@@H](N4CC(C)(C)NC4=O)C3)[nH]n2)on1 (single isomer, unassigned) [Example 117] | 1 to 100 | ≤ 0.1
Cc1cc(CC(=O)Nc2cc([C@H]3CC[C@@H](Oc4nnccc4C)C3)[nH]n2)on1 (single isomer, unassigned) [Example 119] | 0.25 to 1 | ≤ 0.1
CC(C)NC(=O)O[C@@H]1CC[C@H](c2cc(NC(=O)c3ccnn3C)n[nH]2)C1 [Example 5] | ≤ 0.1 | ≤ 0.1
CC(C)NC(=O)O[C@H]1CC[C@@H](c2cc(NC(=O)c3ccnn3C)n[nH]2)C1 [Example 6] | 0.1 to 0.25 | ≤ 0.1
CC1(NC(=O)O[C@@H]2CC[C@H](c3cc(NC(=O)Cc4ccccc4)n[nH]3)C2)CC1 [Example 7] | ≤ 0.1 | ≤ 0.1
COCc1cc(C(=O)Nc2cc([C@@H]3CC[C@H](OC(=O)N(C)C(C)C)C3)[nH]n2)n(C)n1 [Example 8] | 0.1 to 0.25 | ≤ 0.1
CC1(NC(=O)O[C@H]2CC[C@@H](c3cc(NC(=O)Cc4ccccc4)n[nH]3)C2)CC1 [Example 9] | ≤ 0.1 | ≤ 0.1
CC(C)NC(=O)O[C@@H]1CC[C@H](c2cc(NC(=O)Cc3ccccc3)n[nH]2)C1 [Example 12] | 0.1 to 0.25 | ≤ 0.1
CC(C)NC(=O)O[C@@H]1CC[C@H](c2cc(NC(=O)c3ccnc4ncsc34)n[nH]2)C1 [Example 13] | ≤ 0.1 | ≤ 0.1
CC(C)NC(=O)O[C@@H]1CC[C@H](c2cc(NC(=O)Cc3ccccc3S(C)(=O)=O)n[nH]2)C1 [Example 14] | 0.1 to 0.25 | ≤ 0.1
Cc1cc(C(=O)Nc2cc([C@H]3CC[C@@H](OC(=O)NC(C)C)C3)[nH]n2)on1 [Example 17] | 1 to 100 | ≤ 0.1
CC(C)NC(=O)O[C@@H]1CC[C@H](c2cc(NC(=O)Cc3ccnn3C)n[nH]2)C1 [Example 18] | 0.25 to 1 | ≤ 0.1
CC(C)NC(=O)O[C@@H]1CC[C@H](c2cc(NC(=O)c3c[n+](C(C)(C)C)nn3C)n[nH]2)C1 [Example 19] | 1 to 100 | 0.25 to 1
Cc1cc(CC(=O)Nc2cc([C@H]3CC[C@@H](OC(=O)NCCC(C)(C)O)C3)[nH]n2)on1 [Example 23] | 1 to 100 | 0.1 to 0.25
CC(C)NC(=O)O[C@@H]1CC[C@H](c2cc(NC(=O)Cn3nnc4ccccc4c3=O)n[nH]2)C1 [Example 41] | 1 to 100 | ≤ 0.1
CNC(=O)O[C@@H]1CC[C@H](c2cc(NC(=O)Cc3cc(C)no3)n[nH]2)C1 [Example 42] | 1 to 100 | 0.1 to 0.25
Cc1cc(CC(=O)Nc2cc([C@H]3CC[C@@H](C(=O)NC(C)C)CC3)[nH]n2)on1 [Example 55] | 1 to 100 | 1 to 100
Cc1cc(CC(=O)Nc2cc([C@H]3CC[C@H](C(=O)NC(C)C)CC3)[nH]n2)on1 [Example 56] | 1 to 100 | 1 to 100
CC(C)NC(=O)O[C@@H]1CC[C@H](c2cc(NC(=O)Cc3cnc4ncnn4c3)n[nH]2)C1 [Example 107] | 1 to 100 | 0.25 to 1
Cc1cc(CC(=O)Nc2cc([C@H]3C[C@@H](OC(=O)NC(C)C)C3)[nH]n2)on1 [Example 110] | 1 to 100 | ≤ 0.1
CCC(=O)O[C@@H]1CC[C@H](c2cc(NC(=O)Cc3cc(C)no3)n[nH]2)C1 [Example 115] | 1 to 100 | 0.1 to 0.25
Cc1cc(CC(=O)Nc2cc([C@H]3CC[C@@H](OC(=O)NC(C)C)CC3)[nH]n2)on1 [Example 116] | 0.25 to 1 | ≤ 0.1
